Columns and labels:
[1] = in vivo; cited from earlier work
[2] = In vivo comparison with an extracellular contrast medium: blood concentrations and pharmacokinetics in rats (ICP-AES, Topfit program); conditions: rats (n=3), i.v.
Procedure: The suitability of the compound described in Example 1l as a blood-pool agent is shown in the following test.
As test animals, three male (Schering-SPF) rats that are 200-250 g in weight are used. 0.2 ml (respectively 25 mmol/L) of the following contrast medium solution per animal is administered intravenously: mixture of 1 part each of the compound of 1l, named compound 1 below, and the dysprosium complex of 3,6,9-triaza-3,6,9-tris(carboxymethyl)-undecanedioicacid (Dy-DTPA), named compound 2 below. Blood samples are taken with a catheter in the common carotid artery at the following times: 1, 3, 5, 10, 15, 20, 30, 45, 60, 90, 120 minutes p.i. In the blood samples obtained, the concentrations of gadolinium (Gd) and dysprosium (Dy) are measured with the aid of atomic emission spectrometry (ICP-AES) in each case in a parallel manner. The portion of the injected contrast medium of compound 1 (Gd) and compound 2 (Dy, comparison substance), remaining in the blood space, can be compared in the same animals by the different marking. The a- and b-half-lives, the volume of distribution as well as the total clearance can be calculated from the blood concentrations with the aid of special software (Topfit program).
Measured blood concentrations of Gd (compound 1) and Dy (compound 2) in rats (n=3)

[3] = excretion tests in rats; cited from earlier work
[4] = cited from earlier work

Compound: COCC(=O)Nc1c(I)c(C(=O)NCC(O)CO)c(I)c(C(=O)N(C)CC(O)CO)c1I (stereo not shown) [Ultravist]
- dispersion space (entire extracellular space: intravascular space and interstitium) [1]: about 20 % of the volume of the body

Compound: CNC[C@H](O)[C@@H](O)[C@H](O)[C@H](O)CO.CNC[C@H](O)[C@@H](O)[C@H](O)[C@H](O)CO.O=C([O-])CN(CCN(CC(=O)[O-])CC(=O)O)CCN(CC(=O)[O-])CC(=O)O.[Gd+3] [Magnevist]
- dispersion space (entire extracellular space: intravascular space and interstitium) [1]: about 20 % of the volume of the body

Compound: dysprosium complex of 3,6,9-triaza-3,6,9-tris(carboxymethyl)-undecanedioicacid [Compound 2, reference compound]
- Vd ss (volume of distribution) [2]: 0.41 ± 0.04 L/kg
- α-t1/2 ([2]; blood): 1.5 ± 0.5 min
- β-t1/2 ([2]; blood): 19.2 ± 2.5 min

Compound: CNC(=O)CN(CCN(CCN(CC(=O)[O-])CC(=O)NC)CC(=O)[O-])CC(=O)[O-].[Gd+3] [Omniscan]
- dispersion space (entire extracellular space: intravascular space and interstitium) [1]: about 20 % of the volume of the body

Compound: polylysine-GdDTPA
- excretion (in words) [3]: excreted unchanged by glomerular filtration through the kidneys

Compound: albumin-GdDTPA
- concentration in the liver tissue ([4]; 24 h after intravenous injection in rats): ~30 % of the dose
- dose eliminated ([4]; in 24 hours, rats, i.v.): 20 % of the dose

Compound: CC(O)CN1CCN(CC(=O)[O-])CCN(CC(=O)[O-])CCN(CC(=O)[O-])CC1.[Gd+3] (stereo not shown) [Pro Hance]
- dispersion space (entire extracellular space: intravascular space and interstitium) [1]: about 20 % of the volume of the body

Source: US6057419A, “Cascade polymer complexes, process for producing the same and pharmaceuticals containing the same” (Schering Aktiengesellschaft, priority 1995, dated 2000)
